The supplement of paper PMC10307832

What was measured:
Assay in all cases: relative viability (nuclei count vs DMSO), 5 days (fraction); higher = more cells survive
[1] = compound: CC1=C(C(=O)N2C=CSC2=N1)CCN3CCC(=C(C4=CC=CC=C4)C5=CC=C(C=C5)F)CC3
In short: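 Lung cancer cell lines were seeded into 1536-well plates, kept overnight at 37 °C and pinned with five library-drug doses (not always all listed) spaced by √10. After 5 days, nuclei were Hoechst-stained, imaged at 4× and counted with MetaXpress. Viability is treated-well nuclei over vehicle-well nuclei, taken as a median across plates. Plates needed control CV below 25% and at least one doubling.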

[2] = compound: CC1=C(C(=O)N2C=CSC2=N1)CCN3CCC(=C(C4=CC=CC=C4)C5=CC=C(C=C5)F)CC3 + CC(=O)Nc1cccc(-n2c(=O)n(C3CC3)c(=O)c3c(Nc4ccc(I)cc4F)n(C)c(=O)c(C)c32)c1 [Trametinib] (partner 0.02 µM)
In short: (§1)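 Relative viability equals treated-well nuclei counts divided by vehicle-well nuclei counts. Counts came from 4× images of lung cancer cell lines grown in 1536-well plates for 5 days after pin-tool dosing on the day after seeding. Dosing used one drug alone or a fixed anchor-drug dose plus five library-drug doses (not always all listed) in √10 steps, and values are medians of duplicate plates.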

[3] = compound: CC1=C(C(=O)N2C=CSC2=N1)CCN3CCC(=C(C4=CC=CC=C4)C5=CC=C(C=C5)F)CC3 + Cc1cc(Nc2cc(N3CCN(C)CC3)nc(Sc3ccc(NC(=O)C4CC4)cc3)n2)n[nH]1 [Tozasertib] (partner 0.1 µM)
In short: as §1

[4] = compound: CC1=C(C(=O)N2C=CSC2=N1)CCN3CCC(=C(C4=CC=CC=C4)C5=CC=C(C=C5)F)CC3 + NC(=O)Nc1cc(-c2cccc(F)c2)sc1C(=O)N[C@H]1CCCNC1 [AZD7762] (partner 0.2 µM)
In short: as §1

| Cell Line | relative viability ([1]; 0.08 µM) | relative viability ([1]; 0.253 µM) | relative viability ([1]; 0.8 µM) | relative viability ([1]; 2.53 µM) | relative viability ([1]; 8 µM) | relative viability ([2]; first compound 0.08 µM) | relative viability ([2]; first compound 0.253 µM) | relative viability ([2]; first compound 0.8 µM) | relative viability ([2]; first compound 2.53 µM) | relative viability ([2]; first compound 8 µM) | relative viability ([3]; first compound 0.08 µM) | relative viability ([3]; first compound 0.253 µM) | relative viability ([3]; first compound 0.8 µM) | relative viability ([3]; first compound 2.53 µM) | relative viability ([3]; first compound 8 µM) | relative viability ([4]; first compound 0.08 µM) | relative viability ([4]; first compound 0.253 µM) | relative viability ([4]; first compound 0.8 µM) | relative viability ([4]; first compound 2.53 µM) | relative viability ([4]; first compound 8 µM) |
| --- | --- | --- | --- | --- | --- | --- | --- | --- | --- | --- | --- | --- | --- | --- | --- | --- | --- | --- | --- | --- |
| HCC-15 | 0.955 | 1.14 | 1.03 | 0.991 | 0.725 | 0.352 | 0.432 | 0.342 | 0.38 | 0.349 | 0.347 | 0.447 | 0.379 | 0.368 | 0.281 | 1.18 | 1.43 | 1.28 | 1.15 | 1.09 |
| HARA | 1.07 | 1.5 | 1.06 | 0.961 | 0.745 | 0.982 | 0.567 | 0.746 | 0.368 | 0.551 | 0.111 | 0.117 | 0.104 | 0.111 | 0.114 | 0.371 | 0.347 | 0.281 | 0.296 | 0.303 |
| NCI-H520 | 0.981 | 0.974 | 1.03 | 1.05 | 0.657 | 0.712 | 0.625 | 0.631 | 0.778 | 0.393 | 0.514 | 0.435 | 0.439 | 0.464 | 0.401 |  |  |  |  |  |
| NCI-H1563 | 0.903 | 0.949 | 0.882 | 0.986 | 0.918 |  |  |  |  |  |  |  |  |  |  |  |  |  |  |  |
| NCI-H2009 | 1.06 | 1.07 | 0.999 | 1.05 | 0.871 | 0.36 | 0.265 | 0.279 | 0.287 | 0.284 | 0.775 | 0.668 | 0.738 | 0.756 | 0.478 |  |  |  |  |  |
| SW 1573 | 0.892 | 1.12 | 1.08 | 1.04 | 0.61 | 0.562 | 0.678 | 0.646 | 0.652 | 0.354 |  | 0.211 | 0.157 | 0.203 | 0.21 |  |  |  |  |  |
| UMC-11 | 0.914 | 0.952 | 0.936 | 1.17 | 0.713 | 0.461 |  | 0.701 | 0.778 | 0.556 | 0.208 | 0.225 | 0.194 | 0.212 | 0.202 |  |  |  |  |  |
| NCI-H1703 | 1.03 | 0.821 | 0.865 | 1.13 | 0.624 |  |  |  |  |  |  |  |  |  |  | 0.14 | 0.139 | 0.194 | 0.117 | 0.132 |
| Calu-6 | 0.906 | 1.02 | 1.04 | 1.03 | 0.602 |  |  |  |  |  |  |  |  |  |  |  |  |  |  |  |
| NCI-H2228 | 1.02 | 0.978 | 1.15 | 1.1 | 0.597 | 0.481 | 0.417 | 0.612 | 0.506 | 0.332 | 0.278 | 0.237 | 0.227 | 0.232 | 0.282 |  |  |  |  |  |
| NCI-H1650 | 0.794 | 0.982 | 0.875 | 0.997 | 0.642 | 0.513 | 0.532 | 0.483 | 0.722 | 0.412 | 0.402 | 0.428 | 0.463 | 0.372 | 0.363 |  |  |  |  |  |
| SK-MES-1 | 1.02 | 1.01 | 1.03 | 1.09 | 0.692 | 0.578 | 0.523 | 0.545 | 0.594 | 0.474 | 0.922 | 0.971 | 0.862 | 1.08 | 0.601 |  |  |  |  |  |
| ABC-1 | 1.04 | 0.858 | 0.871 | 0.888 | 0.592 |  |  |  |  |  | 0.15 | 0.181 | 0.165 | 0.206 | 0.174 | 0.751 | 0.746 | 0.791 | 0.766 | 0.677 |
| NCI-H1299 | 1.08 | 1 | 1 | 1.01 | 0.714 |  |  |  |  |  |  |  |  |  |  |  |  |  |  |  |
| SK-LU-1 | 0.845 | 0.955 | 1.18 | 1.15 | 0.648 | 0.526 | 0.424 | 0.479 | 0.645 | 0.402 | 0.307 | 0.286 | 0.288 | 0.283 | 0.295 |  |  |  |  |  |
| NCI-H1792 | 0.759 | 0.825 | 0.942 | 0.856 | 0.403 | 0.205 | 0.432 | 0.378 | 0.531 | 0.166 |  |  |  |  |  | 0.649 | 0.655 | 0.62 | 0.636 | 0.386 |
| NCI-H2023 | 0.997 | 0.884 | 0.991 | 1.11 | 0.695 | 0.592 | 0.478 | 0.588 | 0.617 | 0.452 | 0.446 | 0.265 | 0.393 | 0.44 | 0.272 |  |  |  |  |  |
| COR-L23 | 0.883 | 1.16 | 1.22 | 1.19 | 0.519 | 0.748 | 0.612 | 0.5 | 0.731 | 0.372 | 0.18 | 0.164 | 0.169 | 0.214 | 0.184 |  |  |  |  |  |
| NCI-H661 | 0.851 | 1 | 1.01 | 1.02 | 0.764 | 0.49 | 0.486 | 0.525 | 0.518 | 0.462 | 0.341 | 0.35 | 0.36 | 0.383 | 0.361 |  |  |  |  |  |
| COR-L 105 | 0.89 | 0.928 | 0.787 | 0.852 | 0.845 | 0.417 | 0.459 | 0.405 | 0.495 | 0.43 | 0.322 | 0.346 | 0.34 | 0.388 | 0.345 |  |  |  |  |  |
| IA-LM | 0.761 | 0.928 | 1.1 | 0.944 | 0.497 |  |  |  |  |  |  |  |  |  |  |  |  |  |  |  |
